Test results: PMC9414676, “Experimental Studies Indicate That ST-2223, the Antagonist of Histamine H3 and Dopamine D2/D3 Receptors, Restores Social Deficits and Neurotransmission Dysregulation in Mouse Model of Autism” (Pharmaceuticals, 2022)
“Also recorded” adds a separate entry of the source.

Legend:
hH3R = target: T1, hH3R (Homo sapiens, UniProt Q9Y5N1); test: [3H]Nα-methylhistamine binding assay, membranes of HEK cells stably expressing hH3R
T1 construct: expressed in transfected cells
Method: In vitro, ST-2223 was evaluated for its H3R affinity on membrane preparations of HEK-293 cells, which stably express the hH3R, by [^3H]N^α-methylhistamine displacement assays.

BTBR mice = test: Open field locomotor test (OFL), anxiety-like behavior and locomotion; assay type: in vivo
Method: (§1) All the mice were randomly divided into nine groups of 5–7 mice each. The mice were injected intraperitonially once daily for 21 days with different doses of ST2223 (2.5, 5, and 10 mg/kg, i.p.), ARP 1 mg/kg or vehicle (1% DMSO in 0.9% normal saline). Group I, B6 mice were injected with vehicle served as control. Group II, BTBR mice were treated with vehicle. Groups III–V, BTBR mice received i.p. injections of different doses of ST2223 (2.5, 5, and 10 mg/kg, i.p.), respectively. Group VI, BTBR mice were injected with ARP (1 mg/kg, i.p.). For abrogation studies, Group VII, BTBR mice were treated with ST2223 (5 mg/kg, i.p.) along with RAM (10 mg/kg, i.p.). Group VIII, B6 mice were co-injected with vehicle and RAM (10 mg/kg, i.p). All treatments and vehicle (VEH) were administered 30–45 min before each behavioral test. The doses of these drugs were selected based on previous reports. Behavioral testing was performed between 9:00 am and 3:00 pm in an order randomized by group and in the following sequence: social approach test (SAT) and open field locomotor test (OFL). The chronic treatment started one week before the behavioral test and was continued for a total of 21 days as described above (Figure 7). Following behavioral tests, i.e., on day 21 of systemic treatment, five of the animals were sacrificed. The animals were deeply anesthetized with pentobarbital (40 mg/kg, i.p., body weight). To wash out the blood, cardiac perfusion was carried out using 0.01 M phosphate-buffered saline (PBS) at pH 7.4. The brains were quickly removed and placed on an ice plate, where the cerebellum, hippocampus, prefrontal cortex, and striatum were excised from the brain and snap-frozen in liquid nitrogen for later LC-MS/MS analysis.
Open field locomotor test (OFL) systematically assesses exploratory activity based on subjecting an animal to an unfamiliar environment whose escape is prevented by surrounding walls. It is a model of anxiety-like behavior, suitable for assessing motor activity as a reaction to an unknown environment, i.e., locomotion motivated by exploration. Both general locomotor activity and anxiety-related behaviors were assessed as the mice were placed individually inside an open field arena (45 × 45 × 30 cm) and were allowed to move freely for 10 min [80]. Mice were introduced into the center area of the arena (23 × 23 cm) and given 5 min habituation before actual behaviors recording. The overall distance moved inside the complete arena and time spent in the center and periphery was recorded for 10 min using CCD camera-assisted motion tracking equipment and software program (EthoVision 3.1, Noldus Information Technology, The Netherlands). Measurements obtained included total distance traveled and center and periphery time spent for […]. After each testing sessions, chambers we cleaned with 70% ethanol, and enough time was allowed for ethanol evaporation and odor dissipation. When evaluating the results, more time spent in the center indicated low levels of anxiety-like behaviors and total distance travelled represented locomotor activity.

[1] = system: histamine levels in BTBR mice brain; test: Histamine levels by LC-MS/MS in brain regions; assay type: in vivo; design: key to Histamine level: ↔: No significant alterations; ↑: significant increase; ↑↑: additional significant increase vs. ST-2223-treated mice; ↓: significant decrease; details: ST-2223 5 mg/kg i.p. chronic, vs VEH-treated BTBR mice
Method: as §1
(§2) Perfusion was done on anesthetized animals using 1X PBS as described previously. Different regions of the brain were snap frozen. Frozen tissues were then weighed and homogenized in a 10-fold volume of acetonitrile. For 50mg of tissue, 500 µL of acetonitrile and Internal standard mix were added and homogenized. Homogenates were centrifuged at 15,000 rcf for 15 min at 4 °C. Tissue levels of dopamine, acetylcholine, histamine, and their metabolites were assessed using LC-MS/MS. LC-MS/MS analysis was conducted utilizing Waters BEH C18 COLUMN (2.1 × 100 mm, 1.7 µm) using Waters Acquity UPLC Binary Solvent Manager and FTN Sample Manager. The system was run in gradient mode with mobile phase A consisting of LC-MS GRADE WATER + 0.1% FORMIC ACID and mobile phase B consisting of 100% ACETONITRILE. Mobile phase was duly filtered through 0.2 µm filter and degassed ultrasonically for 15 min prior to use. Separations were performed at room temperature with 0.3 mL/min flow rate gradient starting with 90% of A for up to 0.5 min. Then, % of A was decreased gradually until it reached 20% at 2.5 min after which at 3 min %A was brought back to the initial condition and left for equilibration for 2 more minutes before the next injection (total 5 min run time). The injection volume was kept at 1 µL. Mass spectrometric detection was performed in multiple reaction monitoring (MRM) mode with positive electrospray ionization (ESI+) on Xevo TQS mass spectrometer (Waters, Milford, MA) equipped with an electrospray ionization (ESI) source and triple quadrupole mass analyzer. MRM transitions and instrument parameters were set by tuning the instrument by infusing each analyte. MRM transitions taken for quantification were 146.2 > 87.1 for Acetylcholine, 112.2 > 95.2 for Histamine, 154.1 > 137.2 for Dopamine, 150.2 > 91.3 for Acetylcholine D4, and […] > 99.3 for Histamine D4. Capillary Voltage, Source Offset, Source Temperature, De solvation Temperature, Cone Gas Flow, De solvation Gas Flow, Collision Gas Flow, Nebulizer Gas Flow were set as 3.0 (kV), 60.0 (V), 150 (°C), 550 (°C), 150 (L/Hr), 1000 (L/Hr), 0.13 (mL/min), and 7 (Bar), correspondingly. […]

[2] = system: acetylcholine levels in BTBR mice brain; test: Acetylcholine levels by LC-MS/MS in brain regions; assay type: in vivo; design: key to Acetylcholine level: ↔: No significant alterations; ↑: significant increase; ↑↑: additional significant increase vs. ST-2223-treated mice; ↓: significant decrease; details: for Acetylcholine level: ST-2223 5 mg/kg i.p. chronic, vs VEH-treated BTBR mice
Method: as §1, §2

B6 control mice = system: B6 control mice; design: method as in PMID 33669336; details: cited from earlier work
[3] = ST-2223 5 mg/kg i.p. chronic, p < 0.05
[4] = ST-2223 10 mg/kg i.p. chronic, p < 0.05

T1 sequence (Q9Y5N1 whole entry): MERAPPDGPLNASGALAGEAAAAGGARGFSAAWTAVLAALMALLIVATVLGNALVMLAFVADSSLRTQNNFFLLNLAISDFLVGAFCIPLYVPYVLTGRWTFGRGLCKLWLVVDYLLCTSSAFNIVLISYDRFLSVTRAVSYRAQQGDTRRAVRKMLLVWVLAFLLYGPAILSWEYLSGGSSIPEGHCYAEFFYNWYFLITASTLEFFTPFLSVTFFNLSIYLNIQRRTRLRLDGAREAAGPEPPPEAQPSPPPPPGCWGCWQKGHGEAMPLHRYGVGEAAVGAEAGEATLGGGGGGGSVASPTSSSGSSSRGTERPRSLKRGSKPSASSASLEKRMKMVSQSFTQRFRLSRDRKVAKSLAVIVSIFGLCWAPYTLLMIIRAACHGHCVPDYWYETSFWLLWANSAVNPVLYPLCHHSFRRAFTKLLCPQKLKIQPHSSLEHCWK

## COc1ccccc1N1CCN(CCCCNC(=O)c2ccc3cc(OCCCN4CCCCC4)ccc3c2)CC1 [ST-2223, N-(4-(4-(2-methoxyphenyl)piperazin-1-yl)butyl)-6-(3-(piperidin-1-yl)propoxy)-2-naphthamide]
hH3R
  Ki: 4.6 nM
BTBR mice; ST-2223 2.5 mg/kg i.p. chronic
  time spent in the periphery: no group differences
BTBR mice; ST-2223 2.5 mg/kg i.p. chronic, p = 0.84
  time spent in the center of the open field: failed to decrease the time spent in the center of the arena to a significant level
BTBR mice; [3]
  time spent in the center of the open field: significantly less time in the central compartment
  time spent in the periphery: significantly corrected the decreased time
  total distance travelled vs VEH-treated BTBR mice: significantly decreased the total distance travelled
BTBR mice; ST-2223 10 mg/kg i.p. chronic
  time spent in the periphery: no group differences
BTBR mice; [4]
  time spent in the center of the open field: significantly less time in the central compartment
  total distance travelled vs VEH-treated BTBR mice: significantly decreased the total distance travelled
[1]; Cerebellum
  Histamine level: ↑ ^b
[1]; Hippocampus
  Histamine level: ↔
[1]; Prefrontal cortex
  Histamine level: ↔
[1]; 5 mg/kg
  levels of histamine in brain regions: significantly increased the levels of histamine in cerebellum and striatum; also recorded: without significant enhancement of brain histamine in hippocampal tissues
[1]; Striatum
  Histamine level: ↑ ^b
[2]; Hippocampus
  Acetylcholine level: ↑ ^b
[2]; Prefrontal cortex
  Acetylcholine level: ↑ ^b
[2]; Striatum
  Acetylcholine level: ↑ ^b
[2]; prefrontal cortex, striatum and hippocampus, ST-2223 5 mg/kg chronic, p < 0.05
  acetylcholine levels: significant increase of acetylcholine levels
B6 control mice
  behavioral alterations in B6 control mice: no behavioral alterations
